Literature values in patent publication US6548270B1, “DNA encoding human acid-sensing ion channel BNaC4 (ASIC4)” (Ortho-McNeil Pharmaceutical, Inc., priority 2000, dated 2003).
pIC50, pKd: −log10 of the molar value.

Columns and labels:
ASIC1A = molecular target: T1, ASIC1A (Rattus norvegicus, UniProt P55926); conditions: read-out: Amiloride sensitivity, KD; cited from earlier work
T1 sequence (P55926 1-526): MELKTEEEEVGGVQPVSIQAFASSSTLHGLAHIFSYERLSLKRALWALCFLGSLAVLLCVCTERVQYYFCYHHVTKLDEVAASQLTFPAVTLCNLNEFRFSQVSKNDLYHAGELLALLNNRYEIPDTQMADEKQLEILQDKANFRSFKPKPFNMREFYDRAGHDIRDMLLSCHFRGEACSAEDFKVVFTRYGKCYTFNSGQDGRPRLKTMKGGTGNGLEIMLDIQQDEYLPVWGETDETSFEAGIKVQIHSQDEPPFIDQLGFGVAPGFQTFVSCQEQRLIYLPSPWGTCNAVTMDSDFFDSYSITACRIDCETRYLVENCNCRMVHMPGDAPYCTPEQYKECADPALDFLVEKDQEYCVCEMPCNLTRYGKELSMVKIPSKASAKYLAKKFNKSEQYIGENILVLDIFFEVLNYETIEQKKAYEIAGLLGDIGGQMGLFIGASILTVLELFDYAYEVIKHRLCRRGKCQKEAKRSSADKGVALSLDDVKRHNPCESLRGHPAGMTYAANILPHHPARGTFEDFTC

ASIC1B = molecular target: T2, ASIC1B (Rattus norvegicus, UniProt P55926); conditions: read-out: Amiloride sensitivity, IC50; cited from earlier work
T2 sequence (P55926 1-559 isoform P55926-3): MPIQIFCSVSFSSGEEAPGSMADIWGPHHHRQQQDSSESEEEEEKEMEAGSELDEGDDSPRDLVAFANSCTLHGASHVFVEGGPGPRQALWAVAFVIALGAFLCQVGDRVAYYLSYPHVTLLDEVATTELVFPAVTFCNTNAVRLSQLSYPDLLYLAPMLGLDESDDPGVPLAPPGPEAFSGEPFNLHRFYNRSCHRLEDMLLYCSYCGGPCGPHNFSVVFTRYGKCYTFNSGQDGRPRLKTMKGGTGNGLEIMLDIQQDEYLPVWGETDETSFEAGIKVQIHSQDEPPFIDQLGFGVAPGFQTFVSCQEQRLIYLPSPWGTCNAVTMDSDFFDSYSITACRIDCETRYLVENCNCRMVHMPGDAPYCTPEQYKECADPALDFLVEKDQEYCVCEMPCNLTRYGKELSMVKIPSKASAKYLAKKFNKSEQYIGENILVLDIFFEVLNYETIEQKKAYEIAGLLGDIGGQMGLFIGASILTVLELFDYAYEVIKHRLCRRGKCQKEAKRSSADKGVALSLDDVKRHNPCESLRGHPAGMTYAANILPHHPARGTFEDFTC

ASIC2a = ASIC2a gain of function mutant channels; cited from earlier work
MDEG1 + MDEG2 = molecular target: T3, MDEG1 + MDEG2 (Rattus norvegicus, UniProt Q62962); conditions: 500 μM amiloride; cited from earlier work
T3 sequence (Q62962 1-512): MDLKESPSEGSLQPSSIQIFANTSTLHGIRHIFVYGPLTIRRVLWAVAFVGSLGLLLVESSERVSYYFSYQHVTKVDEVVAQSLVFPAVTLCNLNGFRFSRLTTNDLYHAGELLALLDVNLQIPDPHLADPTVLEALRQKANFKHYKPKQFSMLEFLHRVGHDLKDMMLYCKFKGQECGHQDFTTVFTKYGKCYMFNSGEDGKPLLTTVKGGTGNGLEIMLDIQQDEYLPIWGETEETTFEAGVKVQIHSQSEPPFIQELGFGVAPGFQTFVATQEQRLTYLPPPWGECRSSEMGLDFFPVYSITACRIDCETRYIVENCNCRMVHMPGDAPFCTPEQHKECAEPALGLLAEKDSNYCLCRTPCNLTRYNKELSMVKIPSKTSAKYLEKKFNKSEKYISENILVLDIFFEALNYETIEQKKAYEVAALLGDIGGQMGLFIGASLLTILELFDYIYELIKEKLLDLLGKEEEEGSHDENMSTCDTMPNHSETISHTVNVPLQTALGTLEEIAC
T3 sequence (Q62962 1-563 isoform Q62962-2): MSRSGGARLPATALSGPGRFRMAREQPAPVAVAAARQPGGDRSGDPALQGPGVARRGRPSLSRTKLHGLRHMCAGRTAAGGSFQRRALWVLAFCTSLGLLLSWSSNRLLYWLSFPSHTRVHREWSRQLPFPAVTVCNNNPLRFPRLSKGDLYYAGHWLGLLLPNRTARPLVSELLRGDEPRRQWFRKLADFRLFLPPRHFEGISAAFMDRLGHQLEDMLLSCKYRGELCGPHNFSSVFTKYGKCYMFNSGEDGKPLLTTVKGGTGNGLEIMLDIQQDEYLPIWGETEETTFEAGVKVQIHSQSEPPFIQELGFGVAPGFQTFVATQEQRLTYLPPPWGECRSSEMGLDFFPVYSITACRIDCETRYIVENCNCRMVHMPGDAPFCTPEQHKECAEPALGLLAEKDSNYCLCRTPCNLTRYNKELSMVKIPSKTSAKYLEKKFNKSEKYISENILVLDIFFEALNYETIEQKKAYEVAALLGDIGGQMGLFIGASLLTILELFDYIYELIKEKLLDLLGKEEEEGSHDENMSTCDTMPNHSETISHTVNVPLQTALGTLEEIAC

Structure (SMILES): N=C(N)NC(=O)c1nc(Cl)c(N)nc1N [amiloride]
- pKd (ASIC1A): ~5.00
- pIC50 (ASIC1B): 4.68
- Amiloride sensitivity (block of channels) (ASIC2a): Amiloride blocked gain of function
- Amiloride sensitivity (block) (MDEG1 + MDEG2): MDEG1 + MDEG2 completely
